How the values were obtained:
anesthetized dogs = assay: Electromagnetic blood flow measurement (vertebral/cerebral blood flow); format: in vivo; details: vertebral blood flow, administration via saphenous vein
Procedure: After orotraqueal intubation, artificial respiration with normal air was instituted using a Manley Pul- movent respirator. The correct ventilation of the dogs was checked after all the surgical procedures by determining the pO2, pCO2 and pH in arterial blood samples, as well as several times during the experiment by means of an Astrup apparatus. Blood pressure (4) was measured in left saphenous artery by means of a Bell & Howell pressure transducer, and the heart rate by means of a Beckman ECG device.
Recordings were made on an ink-writing Beckman polygraph. Left saphenous vein and right saphenous artery were canulated with polyethylene catheters for drug administration and blood collection respectively.
Vertebral blood flow was measured by a non-cannulating electromagnetic flowmeter (Carolina Medical Electronics) placed in the vertebral artery.
The Carolina digital flowmeter was connected to an Omniscribe Houston Instruments plotter.
Piracetam and nicotinic acid were used as control drugs.

animals [1] = assay: Protection against lethality: hypoxia-hypobara (decompression), survival time; format: in vivo
mouse = assay: Protection against lethality: quick decapitation, gasping time; format: in vivo; details: gasping time after decapitation of mouse
Source text: The second trial is the quick decapitation of mouse. The head has a typical mandibular movement, known as gasping, as searching the breathing air.

animals [2] = assay: Protection against lethality: anoxia by CNK, survival time; format: in vivo
Acute toxicity LD50 = details: in vivo; species and route not given

**Q.** With `O=C(CN1CCCC1=O)N1CCN(CC=Cc2ccccc2)CC1` [N-[(2-oxo-1-pyrrolidinyl)-acetyl]-N'-cinnamylpiperazine] as the molecule, how does the effect (anesthetized dogs; dose 2,5 mg/kg) read?
**A.** Its effect is “Active”.

**Q.** What about the hypoxia hypobara (animals [1]; dose 300 mg/kg) of the same molecule?
**A.** Its hypoxia hypobara is “Active”.

**Q.** What about the gasping (mouse; dose 300 mg/kg) of the same molecule?
**A.** The gasping was “Active”.

**Q.** And the “anoxia by CNK” value (animals [2]; dose 300 mg/kg)?
**A.** Its value is “Active”.

**Q.** What about the LD50 (Acute toxicity LD50) of the same molecule?
**A.** The LD50 was 1400 mg/kg.

**Q.** With `COc1ccc(CN2CCN(C(=O)CN3CCCC3=O)CC2)cc1` [N-[(2-oxo-1-pyrrolidinyl)acetyl]-N'-(p-methoxybenzyl)piperazine] as the molecule, how does the effect (anesthetized dogs; dose 1 mg/kg) read?
**A.** Its effect is “Active”.

**Q.** And the hypoxia hypobara (animals [1]; dose 250 mg/kg)?
**A.** Its hypoxia hypobara is “Active”.

**Q.** What about the gasping (mouse; dose 250 mg/kg) of the same molecule?
**A.** The gasping was “Active”.

**Q.** And the “anoxia by CNK” value (animals [2]; dose 250 mg/kg)?
**A.** The value was “No effect”.

**Q.** What about the LD50 (Acute toxicity LD50) of the same molecule?
**A.** Its LD50 is 1110 mg/kg.

**Q.** For `NC(=O)CN1CCCC1=O` [(2-oxo-1-pyrrolidinyl)acetamide, reference compound], which effect (anesthetized dogs; no dose given) is on record?
**A.** The effect was “No effect”.

**Q.** What about the hypoxia hypobara (animals [1]; dose 1000 mg/kg) of the same molecule?
**A.** The hypoxia hypobara was “No effect”.

**Q.** What about the gasping (mouse; dose 1000 mg/kg) of the same molecule?
**A.** Its gasping is “No effect”.

**Q.** And the “anoxia by CNK” value (animals [2]; dose 1000 mg/kg)?
**A.** Its value is “No effect”.

**Q.** With `O=C1NC(=O)C(c2ccccc2)(c2ccccc2)N1` [Diphenylhydantoine, reference compound] as the molecule, how does the hypoxia hypobara (animals [1]; dose 100 mg/kg) read?
**A.** Its hypoxia hypobara is “Active”.

**Q.** What about the “anoxia by CNK” value (animals [2]; dose 100 mg/kg) of the same molecule?
**A.** Its value is “Active”.

**Q.** With `C=CCN1CCN(C(=O)CN2CCCC2=O)CC1` [N-[(2-oxo-1-pyrrolidinyl)acetyl]-N'-allylpiperazine] as the molecule, how does the effect (anesthetized dogs; dose 2,5 mg/kg) read?
**A.** Its effect is “Active”.

**Q.** What about the hypoxia hypobara (animals [1]; dose 500 mg/kg) of the same molecule?
**A.** The hypoxia hypobara was “Active”.

**Q.** And the gasping (mouse; dose 500 mg/kg)?
**A.** Its gasping is “Active”.

**Q.** And the “anoxia by CNK” value (animals [2]; dose 500 mg/kg)?
**A.** The value was “Active”.

**Q.** What about the LD50 (Acute toxicity LD50) of the same molecule?
**A.** The LD50 was 4000 mg/kg.

**Q.** With `O=C(O)c1cccnc1` [Nicotinic acid, reference compound] as the molecule, how does the effect (anesthetized dogs; no dose given) read?
**A.** The effect was “No effect”.
